In patent publication US20230067910A1, “NOVEL COMPOUNDS FOR THE DIAGNOSIS, TREATMENT AND PREVENTION OF DISEASES ASSOCIATED WITH THE AGGREGATION OF ALPHA-SYNUCLEIN” (MODAG GMBH, priority 2019, published 2023):
Where two headings read alike, the source gives them in different places.

Legend:
[1] = biological target: T1, alpha-synuclein (fibrils) (Homo sapiens, UniProt P37840); assay: Competition binding assay, protocol 3a, reference ligand [3H]-compound 1, alpha-synuclein fibrils; conditions: reference ligand [3H]-compound 1 (1 nM)
T1 construct: made in house; host or cells: E. coli
Experimental: (§1) Alpha-synuclein and tau46 were purified from E. coli according to established protocols (Nuscher B, et al., J. Biol. Chem., 2004; 279(21):21966-75), Aβ1-42 was obtained from rPeptide, Watkinsville, Ga., USA. Fibrils were prepared by aggregation of recombinant protein via constant agitation. In detail, 70 μM of alpha-synuclein mixed with 100 mM NaCl in 50 mM Tris, pH 7.0+0.02% NaN3 were incubated at 1,400 rpm, 37° C. for 96 h. 10 μM of tau46 were incubated with 0.03 mg/ml heparin in 50 mM Tris, pH=7.0 at 1,000 rpm, 37° C. for 72 h. Aβ1-42 was solved in 20 mM NaPi, pH=8.0+0.2 mM EDTA+0.02% NaN3 (Deeg A A, et al., Biochim. Biophys. Acta, 2015; 1850(9): 1884-90; Goedert M, et al. Nature, 1996; 383(6600): 550-3).
A fixed concentration of sonicated human recombinant αSYN (200 nM/well) or tau46 (208 nM/well) fibrils diluted in phosphate buffered saline (PBS) were incubated in low binding plates (96 well micro test plate, Ratiolab GmbH, Dreieich, Germany) together with 1 nM [^3H]-compound 1 and 1:4 serial dilutions of the cold compound of interest starting from 1 μM diluted in 50 mM Tris-base, 10% EtOH, 0.05% Tween20, pH 7.4. For the calculation of Ki values the KD value of compound 1 toward sonicated human recombinant αSYN fibrils was set to 3 nM.
Assay plates were incubated under agitation at 37° C. for 2 h covered by plastic foil (Resealable tape, PerkinElmer, Waltham, Mass., USA). Prior to harvesting, a filter (Printed filtermat B, PerkinElmer, Waltham, Mass., USA) was incubated with 5 mg/mL polyethylenimine (PEI, Poly(ethyleneimine) solution, Sigma Aldrich Chemie GmbH, Taufkirchen, Germany) at 4° C. for 30 min. After incubation, bound and free ligands were separated by vacuum filtration using a harvester (Filtermate harvester, PerkinElmer, Waltham, Mass., USA). The filter was washed three times with buffer cooled to 4° C. and subsequently dried in the microwave for 2 min at medium power. The filter was sealed in a plastic bag (Sample bag for MicroBeta®, PerkinElmer, Waltham, Mass., USA) together with added scintillator (BETAPLATE SCINT, PerkinElmer, Waltham, Mass., USA). Accumulation of tritium was counted in a liquid scintillation counter (Wallac MicroBeta® TriLux, 1450 LSC & Luminescence Counter, PerkinElmer, Waltham, Mass., USA) immediately. Radioactivity was plotted against the increasing tritium-labeled compound or cold compound concentrations. Data points were fitted using nonlinear regression analysis in GraphPad Prism (GraphPad Software, Inc., Version 7.03, La Jolla, Calif., USA).
(§2) The fibril competition assay provides Ki values. Ki is a quantitative measure that represents the concentration of the non-radioactive tested compound (competitor ligand) required to replace 50% of a reference compound, in this case [H]-compound 1 (1 nM) or [H]-compound 2 (1 nM), which is bound to the target structures (1 nM), in our case recombinant alpha-synuclein and tau46 fibrils. This assay is suitable for a screening of non-radioactive ligands.

[2] = biological target: T2, alpha-synuclein (sonicated fibrils) (Homo sapiens, UniProt P37840); assay: Modified competition binding assay, protocol 3b, reference ligand [3H]-compound 2; conditions: Table 5, reference ligand [3H]-compound 2 (1 nM)
T2 construct: made in house; host or cells: E. coli
Experimental: as §1
For competition binding experiments, a fixed concentration of recombinant αSYN fibrils (sonicated, 15 nM/well) was incubated with 1 nM [^3H]-compound 1 or [3H]-compound 2 and decreasing concentrations of a serial dilution of non-labeled competitor (serial dilution 1:4 or 1:3.5 or 1:3 providing the concentration ranges of non-labeled competitor 1 μM-[…] 1 μM-4 nM or 1 μM-[…], respectively) in 30 mM Tris-HCl, 10% ethanol, 0.05% Tween20, pH 7.4 in a total volume of 200 μL/well. Plates were incubated for 4.5 hours at RT covered by removable sealing tape (PerkinElmer, Waltham, Mass., USA).
Filtration and readout were performed as described for saturation binding assays. [^3H]-labeled ligand binding [in CMP] was plotted against increasing competitor concentrations and data points were fitted using non-linear regression analysis to calculate the IC50 and Ki values (GraphPad Software, Inc., Version 7.03, La Jolla (Calif.), USA). In the competition binding assay with sonicated recombinant αSYN fibrils, the calculation of Ki values was done based on KD values of 0.6 nM and 0.2 nM for compound 1 and compound 2, respectively.
as §2

[3] = system: H4 cells overexpressing alpha-synuclein hemi-Venus fusion constructs (V1S+SV2); assay: Cellular model of aggregated alpha-synuclein-dependent toxicity, V1S+SV2 H4 cells; assay type: cell-based; conditions: 10 μM compound, 100 μM FeCl3, 0.75% DMSO, 48 h; for inhibition at 10 µM: read-out: Change in fraction of condensed nuclei (rel. to DMSO control) [%]
Experimental: (§3) To identify potential therapeutically useful effects, compounds were tested in two cellular models of aggregated alpha-synuclein-dependent toxicity in H4 cells. These cellular models allow for the inducible overexpression of alpha-synuclein hemi-Venus fusion constructs (V1S+SV2) or full-length alpha-synuclein (the model is described in detail in: Bartels M, Weckbecker D, Kuhn P H, Ryazanov S, Leonov A, Griesinger C, Lichtenthaler S F, Bötzel K, Giese A: Iron-mediated aggregation and toxicity in a novel neuronal cell culture model with inducible alpha-synuclein expression, Sci. Rep. 2019 Jun. 24; 9(1):9100). Moreover, addition of DMSO and FeCl3 promotes the aggregation of alpha-synuclein which is associated with an increase in cytotoxicity. The cell culture assay uses these effects by determining the change in the number of cells and the change in the percentage of condensed nuclei, which is indicative of apoptosis, in order to obtain information on which compounds show the most promising effects and thus might be therapeutically useful.
(§4) In these experiments, cells were incubated with 100 μM FeCl3 and 0.75% DMSO in the presence of 10 μM anle138c as a positive control, compounds 1 to 19 (10 μM), or DMSO as a negative control. After 48 h, the cells were imaged with an OPERA high-throughput imaging system and analyzed using Acapella software (Perkin Elmer). […] A reduction in the fraction of condensed nuclei (in the absence of a strong reduction in cell number) is indicative of a beneficial therapeutic effect.

[4] = system: H4 cells overexpressing full-length alpha-synuclein; assay: Cellular model of aggregated alpha-synuclein-dependent toxicity, full-length alpha-synuclein H4 cells; assay type: cell-based; conditions: 10 μM compound, 100 μM FeCl3, 0.75% DMSO, 48 h; for inhibition at 10 µM: read-out: Change in fraction of condensed nuclei (rel. to DMSO control) [%]
Experimental: as §3, §4

[5] = biological target: T2, alpha-synuclein (sonicated fibrils); assay: Modified competition binding assay, protocol 3b, reference ligand [3H]-compound 1; conditions: reference ligand [3H]-compound 1 (1 nM)
Experimental: Fibrils were prepared by aggregation of recombinant protein via constant agitation. In detail, 70 μM of alpha-synuclein mixed with 100 mM NaCl in 50 mM Tris, pH 7.0+0.02% NaN3 were incubated at 1,400 rpm, 37° C. for 96 h. 10 μM of tau46 were incubated with 0.03 mg/ml heparin in 50 mM Tris, pH=7.0 at 1,000 rpm, 37° C. for 72 h.
Plates were incubated for 4.5 hours at RT covered by removable sealing tape (PerkinElmer, Waltham, Mass., USA).
Filtration and readout were performed as described for saturation binding assays.
The fibril competition assay provides Ki values. […] This assay is suitable for a screening of non-radioactive ligands.

[6] = Experiment A, read-out: Ki (nM) alpha-synuclein (fibrils)
[7] = Experiment B, read-out: Ki (nM) alpha-synuclein (sonicated fibrils)
[8] = Table 6 comparison series, read-out: Ki (nM), sonicated alpha-synuclein fibrils
[9] = Table 4b, read-out: Ki (nM) alpha-synuclein (sonicated fibrils)

Compound	Ki [1, 6] [nM]	Ki [1, 7] [nM]	Ki [2] [nM]	Change in cell number (rel. to DMSO control) [%] [3] [%]	inhibition at 10 µM [3] [%]	Change in cell number (rel. to DMSO control) [%] [4] [%]	inhibition at 10 µM [4] [%]	Ki [5, 8] [nM]	Ki [5, 9] [nM]
CN(C)c1ncc(-c2cc(-c3cccc(Br)c3)[nH]n2)cn1 [Compound 5, 5-[5-(3-bromophenyl)-1H-pyrazol-3-yl]-N,N-dimethylpyrimidin-2-amine]	27	> 60	13	−12.4	27.3	−14.6	34.2		
CNc1ccc(-c2cc(-c3cccc(Br)c3)[nH]n2)cc1 [Compound 64, reference compound]								3.4	
CNc1ccc(-c2cc(-c3cccc(Br)n3)[nH]n2)cc1 [Compound 58, 4-[5-(6-bromopyridin-2-yl)-1H-pyrazol-3-yl]-N-methylaniline]			5						5.1
Cn1nc(-c2ccnc(Br)c2)cc1-c1ccc2c(c1)OCO2 [Compound 19, 4-[5-(1,3-benzodioxol-5-yl)-1-methyl-1H-pyrazol-3-yl]-2-bromopyridine]				−5.7	-3.2	−30.3	13.2		
CNc1ccc(-c2cc(-c3cncc(Br)c3)[nH]n2)cc1 [Compound 56, 4-[5-(5-bromopyridin-3-yl)-1H-pyrazol-3-yl]-N-methylaniline]			3.3						2.6
CN(C)c1ncc(-c2cc(-c3ccnc(F)c3)[nH]n2)cn1 [Compound 8, 5-[5-(2-fluoropyridin-4-yl)-1H-pyrazol-3-yl]-N,N-dimethylpyrimidin-2-amine]	43		9.9	−4.5	-14.2	−5.7	-10.7		
CN(C)c1ccc(-c2cc(-c3cccc(Br)c3)[nH]n2)cc1 [Compound 65, reference compound]								1.9	
Nc1ccc(-c2cc(-c3ccnc(Br)c3)[nH]n2)cc1 [Compound 7, 4-[5-(2-bromopyridin-4-yl)-1H-pyrazol-3-yl]aniline]				−30.8	46.1	−37.8	62.5		
Fc1cncc(-c2cc(-c3ccc4c(c3)OCO4)n[nH]2)c1 [Compound 13, 3-[3-(1,3-benzodioxol-5-yl)-1H-pyrazol-5-yl]-5-fluoropyridine]			189	−6.1	-46	−18.1	55.5		
Fc1cccc(-c2cc(-c3ccc4c(c3)OCO4)n[nH]2)n1 [Compound 11, 2-[3-(1,3-benzodioxol-5-yl)-1H-pyrazol-5-yl]-6-fluoropyridine]			7.4	−17.4	-123	−20.0	-13.7		
Brc1cccc(-c2cc(-c3cc4c(cn3)OCO4)n[nH]2)c1 [Compound 20, 6-[3-(3-bromophenyl)-1H-pyrazol-5-yl]-1,3-dioxolo[4,5-c]pyridine]			5.5						3.1
CNc1ccc(-c2cc(-c3cc(Br)ccn3)[nH]n2)cc1 [Compound 57, 4-[5-(4-bromopyridin-2-yl)-1H-pyrazol-3-yl]-N-methylaniline]			2.8						3.3
Clc1cc(-c2cc(-c3ccc4c(c3)OCO4)n[nH]2)ccn1 [Compound 14, 4-[3-(1,3-benzodioxol-5-yl)-1H-pyrazol-5-yl]-2-chloropyridine]			1.3	−21.9	-61	−32.0	47.3		
CN(C)c1ncc(-c2cc(-c3ccnc(Br)c3)[nH]n2)cn1 [Compound 6, 5-[5-(2-bromopyridin-4-yl)-1H-pyrazol-3-yl]-N,N-dimethylpyrimidin-2-amine]	24	> 300	8.9	−34.0	-53.6	−31.0	-5.4		
